According to patent US6730697B2, “Dihydrothiaphenanthrenecarbonylguanidines: composition, process of making, and use as medicament or diagnostic aid” (Aventis Pharma Deutschland GmbH, priority 2002, dated 2004):
Where a name gives a salt, the structure may show the parent alone.

Molecular target: T1, human NHE-1 (Homo sapiens, UniProt P19634)
T1 construct: expressed in transfected cells; host or cells: LAP-1 cells (parental line without endogenous NHE activity, from Prof. Pouysségur, Nice), G418-selected transfectants
T1 sequence (P19634 whole entry): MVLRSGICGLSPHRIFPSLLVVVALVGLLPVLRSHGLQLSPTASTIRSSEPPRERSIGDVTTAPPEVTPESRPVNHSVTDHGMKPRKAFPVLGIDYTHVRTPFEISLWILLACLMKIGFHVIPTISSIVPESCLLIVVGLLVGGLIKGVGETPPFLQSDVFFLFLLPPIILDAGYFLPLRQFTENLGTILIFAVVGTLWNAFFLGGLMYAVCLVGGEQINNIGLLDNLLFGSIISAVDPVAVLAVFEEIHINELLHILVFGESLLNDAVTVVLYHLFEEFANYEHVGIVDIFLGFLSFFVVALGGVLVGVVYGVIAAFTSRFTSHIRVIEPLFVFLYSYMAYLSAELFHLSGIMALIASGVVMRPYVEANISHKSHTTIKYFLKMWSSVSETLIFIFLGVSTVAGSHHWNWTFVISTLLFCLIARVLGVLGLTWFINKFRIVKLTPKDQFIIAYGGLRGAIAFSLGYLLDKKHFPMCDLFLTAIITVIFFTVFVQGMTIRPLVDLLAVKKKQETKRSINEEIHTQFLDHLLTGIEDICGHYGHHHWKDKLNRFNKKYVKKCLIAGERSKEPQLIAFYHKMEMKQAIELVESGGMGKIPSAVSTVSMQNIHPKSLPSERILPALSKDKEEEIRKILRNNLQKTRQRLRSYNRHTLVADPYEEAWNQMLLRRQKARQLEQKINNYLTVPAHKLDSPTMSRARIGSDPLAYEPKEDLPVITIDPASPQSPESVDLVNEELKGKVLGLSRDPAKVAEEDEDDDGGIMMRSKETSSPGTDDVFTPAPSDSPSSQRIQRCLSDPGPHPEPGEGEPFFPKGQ
Assay: FLIPR assay for NHE-1 inhibition by recovery of pHi in transfected cell lines
Type: cell-based
Conditions: transfected LAP-1 cell line expressing human NHE-1, BCECF fluorescence
Procedure: The NHE-1 inhibition IC50 [nM] was determined as follows: FLIPR Assay for Determining NHE-1 Inhibitors by Measurement of the Recovery in pHi in Transfected Cell Lines Which Express Human NHE-1 The assay is carried out in an FLIPR (fluorometric imaging plate reader) with black-walled 96-well microtiter plates with clear bases. […] [The growth medium for the transfected cells (Iscove +10% fetal calf serum) additionally contains G418 as selection antibiotic in order to ensure the presence of the transfected sequences.] The actual assay starts with the removal of the growth medium and addition of 100 μl of loading buffer per well (5 μM BCECF-AM [2′, 7′-bis(carboxyethyl)-5-(and-6)-carboxyfluorescein, acetoxymethyl ester] in 20 mM NH4Cl, 115 mM choline chloride, 1 mM MgCl2, 1 mM CaCl2, 5 mM KCl, 20 mM HEPES, 5 mM glucose; pH 7.4 [adjusted with KOH]). The cells are then incubated at 37° C. for 20 minutes. This incubation leads to loading of the cells with the fluorescent dye whose fluorescence intensity depends on pHi, and with NH4Cl which makes the cells slightly alkaline. [The nonfluorescent dye precursor BCECF-AM is, as ester, membrane-permeable. The actual dye BCECF is not membrane-permeable but is liberated inside cells by esterases.] After this incubation for 20 minutes, the loading buffer which contains NH4Cl and free BCECF-AM is removed by washing three times in a cell washer (Tecan Columbus) with in each case 400 μl of washing buffer (133.8 mM choline chloride, 4.7 mM KCl, 1.25 mM MgCl2, 1.25 mM CaCl2, 0.97 mM K2HPO4, 0.23 mM KH2PO4, 5 mM HEPES, 5 mM glucose; pH 7.4 [adjusted with KOH]). The residual volume remaining in the wells is 90 μl (50-125 μl possible). This washing step removes the free BCECF-AM and results, as a consequence of the removal of the external NH4^+ ions, in intracellular acidification (˜pHi 6.3-6.4). Since the equilibrium of intracellular NH4^+ with NH3 and H^+ is disturbed by the removal of the extracellular NH4^+ and by the subsequent instantaneous passage of the NH3 through the cell membrane, the washing process results in H^+ remaining inside the cells, which is the cause of the intracellular acidification. This may eventually lead to cell death if it persists long enough. It is important at this point that the washing buffer is sodium-free (<1 mM) because extracellular sodium ions would lead to an instantaneous recovery of the pHi through the activity of the cloned NHE isoforms. It is likewise important for all the buffers used (loading buffer, washing buffer, recovery buffer) not to contain any HCO3^− ions, because the presence of bicarbonate would lead to activation of interfering bicarbonate-dependent pHi regulatory systems present in the parental LAP-1 cell line. The microtiter plates with the acidified cells are then (up to 20 minutes after the acidification) transferred to the FLIPR. In the FLIPR, the intracellular fluorescent dye is excited by light with a wavelength of 488 nm generated by an argon laser, and the measured parameters (laser power, illumination time and aperture of the CCD camera incorporated in the FLIPR) are chosen so that the average fluorescence signal per well is between 30 000 and 35 000 relative fluorescence units. The actual measurement in the FLIPR starts with a photograph being taken by the CCD camera every two seconds under software control. After ten seconds, the recovery of the intracellular pH is initiated by adding 90 μl of recovery buffer (133.8 mM NaCl, 4.7 mM KCl, 1.25 mM MgCl2, 1.25 mM CaCl2, 0.97 mM K2HPO4, 0.23 mM KH2PO4, 10 mM HEPES, 5 mM glucose; pH 7.4 [adjusted with NaOH]) by means of the 96-well pipettor incorporated in the FLIPR. Positive control wells (100% NHE activity) are those to which pure recovery buffer is added, while negative controls (0% NHE activity) receive washing buffer. Recovery buffer with twice the concentration of test substance is added to all the other wells. Measurement in the FLIPR terminates after 60 measurements (two minutes). […]

SMILES | IC50 [nM]
Cc1cc2c(cc1C(=O)NC(=N)N)S(=O)(=O)Cc1ccc3ccccc3c1-2 [Example 2, N-(2-Methyl-5,5-dioxo-5,6-dihydro-5-thiabenzo[c]phenanthrene-3-carbonyl)guanidinium Formate] | 24.2
Cc1ccc2c(c1)-c1cc(C)c(C(=O)NC(=N)N)cc1S(=O)(=O)C2 [Example 3, N-(3,6-Dimethyl-9,9-dioxo-9,10-dihydro-9-thiaphenanthrene-7-carbonyl)-guanidinium Formate] | 8.6
Cc1cc2c(cc1C(=O)NC(=N)N)S(=O)(=O)Cc1cc(Cl)ccc1-2 [Example 4, N-(2-Chloro-6-methyl-9,9-dioxo-9,10-dihydro-9-thiaphenanthrene-7-carbonyl)guanidinium Formate] | 10.8
Cc1cc2c(cc1C(=O)NC(=N)N)S(=O)(=O)Cc1c(F)cccc1-2 [Example 6, N-(1-Fluoro-6-methyl-9,9-dioxo-9,10-dihydro-9-thiaphenanthrene-7-carbonyl)guanidinium Formate] | 16.5
COc1ccc2c(c1)CS(=O)(=O)c1cc(C(=O)NC(=N)N)c(C)cc1-2 [Example 8, N-(2-Methoxy-6-methyl-9,9-dioxo-9,10-dihydro-9-thiaphenanthrene-7-carbonyl)guanidinium Formate] | 10.2
Cc1ccc2c(c1)CS(=O)(=O)c1cc(C(=O)NC(=N)N)c(C)cc1-2 [Example 11, N-(2,6-Dimethyl-9,9-dioxo-9,10-dihydro-9-thiaphenanthrene-7-carbonyl)-guanidinium Formate] | 19.5

Other lines, results leading:

IC50 [nM] | SMILES
15.6 | Cc1cc2c(cc1C(=O)NC(=N)N)S(=O)(=O)Cc1ccccc1-2 [Example 1, N-(6-Methyl-9,9-dioxo-9,10-dihydro-9-thiaphenanthrene-7-carbonyl)guanidinium Formate]
15.6 | Cc1cc2c(cc1C(=O)NC(=N)N)S(=O)(=O)Cc1ccc(F)cc1-2 [Example 5, N-(3-Fluoro-6-methyl-9,9-dioxo-9,10-dihydro-9-thiaphenanthrene-7-carbonyl)guanidinium Formate]
11.7 | Cc1cc2c(cc1C(=O)NC(=N)N)S(=O)(=O)Cc1ccc(Cl)cc1-2 [Example 7, N-(3-Chloro-6-methyl-9,9-dioxo-9,10-dihydro-9-thiaphenanthrene-7-carbonyl)guanidinium Formate]
13.9 | Cc1cc2c(cc1C(=O)NC(=N)N)S(=O)(=O)Cc1c(Cl)cccc1-2 [Example 9, N-(1-Chloro-6-methyl-9,9-dioxo-9,10-dihydro-9-thiaphenanthrene-7-carbonyl)guanidinium Formate]
67.7 | Cc1cc2c(cc1C(=O)NC(=N)N)S(=O)(=O)Cc1cccc(C)c1-2 [Example 10, N-(4,6-Dimethyl-9,9-dioxo-9,10-dihydro-9-thiaphenanthrene-7-carbonyl)-guanidinium Formate]
